Test system: outward potassium currents in DRG neurons
Test: Whole cell patch clamp recording of outward potassium currents in DRG neurons using the interface chamber
Assay type: cell-based
Protocol: The current across a patch clamp measuring electrode and cell versus time is shown. Whole cell recording measurements were obtained via conventional methods. The interface chamber was moved to surround the cell as in steps 101-103 above. A measurement of current was recorded while the cell was in a well containing a normal saline (control) solution. The cell was then moved from normal saline to a well containing increasing concentrations (from 0 to 10 mM in increasing increments) of the K^+ channel blocker 4-AP. For each of the measurements, cells were held at −50 mV, stepped with a prepulse to −100 mV for 400 ms and then stepped for the test to +40 mV. After the test pulse, cells were repolarized to −60 mV. Sweeps were obtained every 10 sec, and 5 sweeps were obtained per well. The interface was moved from one well to the next in a short time, such as 2 seconds.
Outward currents due to K^+ flow from the cell is shown. […] The lower current is consistent with the expected blocking effected of the 4-AP. Both the peak current (the spike at the left of graph of each measurement) and the end current (final value of current for each measurement) decreased as the concentration of 4-AP increased.
FIG. 8 illustrates a graph showing the peak current of a fractional block versus the concentration of a test substance according to one example of the invention. […] The dose response curve shown illustrates the ability of this system to measure multiple concentrations of test substance accurately.

[1] = highest concentration tested (10 mM)

For `Nc1ccncc1` [4-AP], the “end current (final value of current for each measurement)” value (as the concentration of 4-AP increased (0 to 10 mM)) was “decreased”, the peak current (as the concentration of 4-AP increased (0 to 10 mM), FIG. 7, shown as fractional block in FIG. 8) was “the peak current decreased as the concentration of 4-AP increased” and the inactivating current remaining [1] was “no inactivating current remains”. The “non-inactivating (persistent) current remaining” value [1] was “significant non-inactivating (persistent) current persists” and the “current across the cell membrane (outward K+ current)” value (whole cell, increasing 4-AP concentrations from 0 to 10 mM, test pulse to +40 mV) was “decreased the current across the cell membrane”.
